Reference: patent US20260022143A1, “Cyclic Peptide Inhibitors of IL-23” (JANSSEN PHARMACEUTICA NV, priority 2022, published 2026)
Structures can show the parent of a compound that is named as a salt. Positions of bridges follow the written chain, without caps; N, C: chain ends. Non-standard residues stand in square brackets, D forms with d. Residues, ends and D or L forms follow the SMILES beside them. *: point of attachment. Me3N+(CH2)2O(CH2)2O(CH2)2CO = C[N+](C)(C)CCOCCOCCC(=O)*; Trp(7-Me) = Cc1cccc2c(C[C@H](N)C(=O)O)c[nH]c12; Hexanoyl(6-NMe3+) = C[N+](C)(C)CCCCCC(=O)*; Dab(NMeAc) = CC(=O)N(C)CC[C@H](N)C(=O)O; 2Nal = N[C@@H](Cc1ccc2ccccc2c1)C(=O)O; AEF = NCCOc1ccc(C[C@H](N)C(=O)O)cc1; 3Pal = N[C@@H](Cc1cccnc1)C(=O)O; Lys(Me) = CNCCCC[C@H](N)C(=O)O; NHCH2CH2OCH2CH2OMe = COCCOCCN*; Pen = CC(C)(S)[C@H](N)C(=O)O; Thp = NC1(C(=O)O)CCOCC1; X3 = C[N+](C)(C)CCCCC*; Tfa = O=C(C(F)(F)F)*; Sar = CNCC(=O)O

assay: Exposed Polar Surface Area (EPSA); assay type: physicochemical; details: SFC on Chirex 3014 column; sample 1 mM DMSO stock; read-out: EPSA
Procedure, shortened: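 Polarity descriptor in Å² derived from retention time using 8 calibration standards re-run every 20 compounds. Duplicate injections of 1 mM DMSO stock; linear 5–60% modifier gradient (20 mM ammonium formate in MeOH) with CO2 at 4 mL/min, 35 °C, on a Chirex 3014 column.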

| EPSA [A^2] | SMILES |
| --- | --- |
| 162 | CCCCCCCCCCCC(=O)N[C@@H](CCC(=O)NCCOCCOCC(=O)NCCOCCOCC(=O)NC(COCCOCC[N+](C)(C)C)C(=O)N[C@@H]1C(=O)N[C@@H](CC(=O)N(C)C)C(=O)N[C@@H]([C@@H](C)O)C(=O)N[C@@H](Cc2c[nH]c3c(C)cccc23)C(=O)N[C@@H](CCCCN(C)C(C)=O)C(=O)N[C@H](C(=O)N[C@@H](Cc2ccc(OCCOCCOCC[N+](C)(C)C)cc2)C(=O)N[C@@H](Cc2ccc3ccccc3c2)C(=O)NC2(C(=O)N[C@@H](CCCCN(C)C(C)=O)C(=O)N[C@@H](CC(N)=O)C(=O)N[C@@H](Cc3cccnc3)C(=O)N(C)CC(=O)N(C)C)CCOCC2)C(C)(C)SSC1(C)C)C(=O)O (relative stereo) [compound 366, C12gEPEG2PEG2CO-APEG2Ser(S*)-Pen(3)-N(N(Me)2)-T-7MeW-K(NMeAc)-Pen(3)-APEG3F-2Nal-THP-K(NMeAc)-N-3Pya-Sar-CON(Me)2] |
| 167 | CC(=O)NCCCC[C@@H]1NC(=O)[C@H](Cc2c[nH]c3c(C)cccc23)NC(=O)[C@H]([C@@H](C)O)NC(=O)[C@H](CC(N)=O)NC(=O)[C@@H](NC(=O)[C@@H](CCCCNC(=O)CCCCC[N+](C)(C)C)NC(C)=O)C(C)(C)SSC(C)(C)[C@@H](C(=O)N[C@@H](Cc2ccc(OCCN)cc2)C(=O)N[C@@H](Cc2ccc3ccccc3c2)C(=O)NC2(C(=O)N[C@@H](CCC(=O)O)C(=O)N[C@@H](CC(N)=O)C(=O)N[C@@H](Cc3cccnc3)C(=O)N(C)CC(N)=O)CCOCC2)NC1=O [compound 83] (Ac-[dK](Hexanoyl(6-NMe3+))[Pen]NT[Trp(7-Me)]K(Ac)[Pen][AEF][2Nal][Thp]EN[3Pal][Sar]-NH2; disulfide 2-7 (inferred)) |
| 157 | CC(=O)N(C)CC[C@@H]1NC(=O)[C@H](Cc2c[nH]c3c(C)cccc23)NC(=O)[C@H]([C@@H](C)O)NC(=O)[C@H](CC(N)=O)NC(=O)[C@@H](NC(=O)C(F)(F)F)C(C)(C)SSC(C)(C)[C@@H](C(=O)N[C@@H](Cc2ccc(OCCN)cc2)C(=O)N[C@@H](Cc2ccc3ccccc3c2)C(=O)NC2(C(=O)N[C@@H](CCC(=O)N(C)C)C(=O)N[C@@H](CC(N)=O)C(=O)N[C@@H](Cc3cccnc3)C(=O)N(C)CC(N)=O)CCOCC2)NC1=O [compound 75] (Tfa-[Pen]NT[Trp(7-Me)][Dab(NMeAc)][Pen][AEF][2Nal][Thp]E(NMe2)N[3Pal][Sar]-NH2; disulfide 1-6) |
| 152 | CC(=O)N(C)CCCC[C@@H]1NC(=O)[C@H](Cc2c[nH]c3c(C)cccc23)NC(=O)[C@H]([C@@H](C)O)NC(=O)[C@H](CC(=O)N(C)C)NC(=O)[C@@H](NC(=O)CCOCCOCC[N+](C)(C)C)C(C)(C)SSC(C)(C)[C@@H](C(=O)N[C@@H](Cc2ccc(OCCCCC[N+](C)(C)C)cc2)C(=O)N[C@@H](Cc2ccc3ccccc3c2)C(=O)NC2(C(=O)N[C@@H](CCC(=O)N(C)C)C(=O)N[C@@H](CC(N)=O)C(=O)N[C@@H](Cc3cccnc3)C(=O)N(C)CC(=O)N(C)C)CCOCC2)NC1=O [compound 310, cPEG3aCO-Pen(3)-N(N(Me)2)-T-7MeW-K(NMeAC)-Pen(3)-TMAPF-2Nal-THP-Q(N(Me)2)-N-3Pya-Sar-CON(Me)2] ({Me3N+(CH2)2O(CH2)2O(CH2)2CO}-[Pen]D(NMe2)T[Trp(7-Me)][Lys(Me)](Ac)[Pen]Y(X3)[2Nal][Thp]E(NMe2)N[3Pal][Sar]-NMe2; disulfide 1-6) |
| 170 | COCCOCCNC(=O)CN(C)C(=O)[C@H](Cc1cccnc1)NC(=O)[C@H](CC(N)=O)NC(=O)[C@H](CCC(=O)O)NC(=O)C1(NC(=O)[C@H](Cc2ccc3ccccc3c2)NC(=O)[C@H](Cc2ccc(OCCN)cc2)NC(=O)[C@H]2NC(=O)[C@H](CCCCNC(C)=O)NC(=O)[C@H](Cc3c[nH]c4c(C)cccc34)NC(=O)[C@H]([C@@H](C)O)NC(=O)[C@H](CC(N)=O)NC(=O)[C@@H](NC(C)=O)C(C)(C)SSC2(C)C)CCOCC1 [compound 116] (Ac-[Pen]NT[Trp(7-Me)]K(Ac)[Pen][AEF][2Nal][Thp]EN[3Pal][Sar]-NHCH2CH2OCH2CH2OMe; disulfide 1-6 (inferred)) |
